Legend:
[1] = test system: barnyardgrass; assay: Test E postemergence; assay type: in vivo, Echinochloa crus-galli
Excerpt: Seeds of plant species selected from corn (Zea mays), soybean (Glycine max), velvetleaf (Abutilon theophrasti), lambsquarters (Chenopodium album), wild poinsettia (Euphorbia heterophylla), palmer pigweed (Amaranthus palmeri), waterhemp (common waterhemp, Amaranthus rudis), surinam grass (Brachiaria decumbens), large (Lg) crabgrass (Digitaria sanguinalis), Brazilian crabgrass (Digitaria horizontalis), fall panicum (Panicum dichotomiflorum), giant foxtail (Setaria faberii), green foxtail (Setaria viridis), goosegrass (Eleusine indica), johnsongrass (Sorghum halepense), ragweed (common ragweed, Ambrosia elatior), barnyardgrass (Echinochloa crus-galli), sandbur (southern sandbur, Cenchrus echinatus), arrowleaf sida (Sida rhombifolia), Italian ryegrass (Lolium multiflorum), dayflower (Virginia (VA) dayflower, Commelina virginica), field bindweed (Convolvulus arvensis), morningglory (Ipomoea coccinea), nightshade (eastern black nightshade, Solanum ptycanthum), kochia (Kochia scoparia), yellow nutsedge (Cyperus esculentus), cocklebur (common cocklebur, Xanthium strumarium), smartweed (ladysthumb smartweed, and hairy beggarticks (Bidens pilosa), were planted into a silt loam soil and treated preemergence with test chemicals formulated in a non-phytotoxic solvent mixture which included a surfactant.
At the same time, plants from these crop and weed species and also horseweed (Canada horseweed, Conyza canadensis), waterhemp_RES1, (ALS & Triazine resistant common waterhemp, Amaranthus rudis), and waterhemp_RES2, (ALS & HPPD resistant common waterhemp, Amaranthus rudis) were planted in pots containing Redi-Earth® planting medium (Scotts Company, 14111 Scottslawn Road, Marysville, Ohio 43041) comprising spaghnum peat moss, vermiculite, wetting agent and starter nutrients were treated with postemergence applications of test chemicals formulated in the same manner. Plants ranged in height from 2 to 18 cm for postemergence treatments (1- to 4-leaf stage). Treated plants and controls were maintained in a greenhouse for 14 to 21 days, after which time all species were compared to controls and visually evaluated. Plant response ratings, summarized in Table E, are based on a scale of 0 to 100 where 0 is no effect and 100 is complete control. A dash (-) response means no test result.

[2] = test system: bluegrass; assay: Test D preemergence; assay type: in vivo, Poa annua
Outline: (§1)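 After treatment, visual injury versus untreated plants, 0–100 scale, assessed at 7 to 21 days. Applications were made preemergence to silt loam-sown seed and postemergence to seedlings 2–18 cm high in potting medium.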

[3] = test system: blackgrass; assay: Test D preemergence; assay type: in vivo, Alopecurus myosuroides
Outline: as §1

[4] = test system: canarygrass; assay: Test D preemergence; assay type: in vivo, Phalaris minor
Outline: as §1

[5] = test system: bromegrass, downy; assay: Test D preemergence; assay type: in vivo, Bromus tectorum
Outline: as §1

[6] = test system: green foxtail; assay: Test D preemergence; assay type: in vivo, Setaria viridis
Outline: as §1

[7] = test system: bluegrass; assay: Test D postemergence; assay type: in vivo, Poa annua; conditions: Postemergence, scale 0 to 100 (0 no effect, 100 complete control)
Outline: as §1

[8] = test system: bromegrass, downy; assay: Test D postemergence; assay type: in vivo, Bromus tectorum; conditions: Postemergence, scale 0 to 100 (0 no effect, 100 complete control)
Outline: as §1

[9] = test system: lambsquarters; assay: Test D postemergence; assay type: in vivo, Chenopodium album
Outline: as §1

[10] = test system: chamomile; assay: Test D postemergence; assay type: in vivo, Matricaria inodora
Outline: as §1

[11] = test system: spring barley; assay: Test D postemergence; assay type: in vivo, Hordeum vulgare; conditions: Postemergence, scale 0 to 100 (0 no effect, 100 complete control)
Outline: as §1

[12] = test system: winter barley; assay: Test D postemergence; assay type: in vivo, Hordeum vulgare; conditions: Postemergence, scale 0 to 100 (0 no effect, 100 complete control)
Outline: as §1

[13] = test system: wild oat; assay: Test D postemergence; assay type: in vivo, Avena fatua
Outline: as §1

[14] = Postemergence, 31 g ai/ha, scale 0 to 100
[15] = Postemergence, 62 g ai/ha, scale 0 to 100
[16] = Postemergence, 125 g ai/ha, scale 0 to 100
[17] = postemergence, 16 g ai/ha, scale 0 to 100, 0 no effect, 100 complete control
[18] = 31 g ai/ha, scale 0 (no effect) to 100 (complete control)
[19] = 62 g ai/ha, scale 0 to 100 (0 no effect, 100 complete control)
[20] = 125 g ai/ha, scale 0 to 100 (0 no effect, 100 complete control)
[21] = 250 g ai/ha, scale 0 to 100 (0 no effect, 100 complete control)

SMILES: Fc1cnc(Oc2ccccc2-n2cc(Br)cn2)nc1 [Compound 10, 2-[2-(4-bromo-1H-pyrazol-1-yl)phenoxy]-5-fluoropyrimidine]
- pest or weed control at 31 g/ha ([1]; Echinochloa crus-galli, post-emergence, Postemergence, 31 g ai/ha, scale 0 to 100, read-out: Plant response rating, Barnyardgrass): 0%
- pest or weed control at 62 g/ha ([1]; Echinochloa crus-galli, post-emergence, Postemergence, 62 g ai/ha, scale 0 to 100, read-out: Plant response rating, Barnyardgrass): 0%
- pest or weed control at 125 g/ha ([1]; Echinochloa crus-galli, post-emergence, Postemergence, 125 g ai/ha, scale 0 to 100, read-out: Plant response rating, Barnyardgrass): 0%
- pest or weed control at 250 g/ha ([1]; Echinochloa crus-galli, post-emergence, Postemergence, 250 g ai/ha, scale 0 to 100, read-out: Plant response rating, Barnyardgrass): 0%
- pest or weed control at 16 g/ha ([1]; Echinochloa crus-galli, post-emergence, postemergence, 16 g ai/ha, scale 0 to 100, 0 no effect, 100 complete control, read-out: Plant response rating, Barnyardgrass): 0%

SMILES: FC(F)(F)c1cnn(-c2ccccc2Oc2ncc(Cl)cn2)c1 [Compound 16]
- Plant response rating, Barnyardgrass [1, 14]: 0
- Plant response rating, Barnyardgrass [1, 15]: 0
- Plant response rating, Barnyardgrass [1, 16]: 10
- Plant response rating, Barnyardgrass ([1]; Postemergence, 250 g ai/ha, scale 0 to 100): 15
- Plant response rating, Barnyardgrass [1, 17]: 0

SMILES: Clc1cnc(Oc2cccc(Br)c2-n2cc(Br)cn2)nc1 [Compound 65]
- Plant response rating, Barnyardgrass [1, 14]: 0
- Plant response rating, Barnyardgrass [1, 15]: 0
- Plant response rating, Barnyardgrass [1, 16]: 0
- Plant response rating, Barnyardgrass ([1]; postemergence, 8 g ai/ha, scale 0 to 100, 0 no effect, 100 complete control): 0
- Plant response rating, Barnyardgrass [1, 17]: 0

SMILES: N#Cc1cccc(Oc2ncc(Cl)cn2)c1-n1cc(-n2ccc(C(F)(F)F)n2)cn1 [Compound 284]
- Plant response rating, Bluegrass [2, 18]: 0
- Plant response rating, Bluegrass ([2]; 62 g ai/ha, scale 0-100): 15
- Plant response rating, Bluegrass ([2]; 125 g ai/ha, scale 0-100): 20
- Plant response rating, Bluegrass ([2]; 250 g ai/ha, scale 0-100): 25
- Plant response rating, Blackgrass [3, 18]: 0
- Plant response rating, Blackgrass ([3]; 62 g ai/ha, scale 0-100): 10
- Plant response rating, Blackgrass ([3]; 125 g ai/ha, scale 0-100): 35
- Plant response rating, Blackgrass ([3]; 250 g ai/ha, scale 0-100): 65
- Plant response rating, Canarygrass [4, 18]: 30
- Plant response rating, Canarygrass ([4]; 62 g ai/ha, scale 0-100): 25
- Plant response rating, Canarygrass ([4]; 125 g ai/ha, scale 0-100): 35
- Plant response rating, Canarygrass ([4]; 250 g ai/ha, scale 0-100): 60
- Plant response rating, Bromegrass, Downy [5, 18]: 0
- Plant response rating, Bromegrass, Downy ([5]; 62 g ai/ha, scale 0-100): 0
- Plant response rating, Bromegrass, Downy ([5]; 125 g ai/ha, scale 0-100): 0
- Plant response rating, Bromegrass, Downy ([5]; 250 g ai/ha, scale 0-100): 10
- Plant response rating, Foxtail, Green [6, 18]: 10
- Plant response rating, Foxtail, Green ([6]; 62 g ai/ha, scale 0-100): 5
- Plant response rating, Foxtail, Green ([6]; 125 g ai/ha, scale 0-100): 10
- Plant response rating, Foxtail, Green ([6]; 250 g ai/ha, scale 0-100): 80
- Plant response rating, Bluegrass ([7]; 62 g ai/ha): 35
- Plant response rating, Bluegrass ([7]; 31 g ai/ha): 25
- Plant response rating, Bluegrass ([7]; 125 g ai/ha): 40
- Plant response rating, Bluegrass ([7]; 250 g ai/ha): 45
- Plant response rating, Bromegrass, Downy ([8]; 62 g ai/ha): 40
- Plant response rating, Bromegrass, Downy ([8]; 31 g ai/ha): 30
- Plant response rating, Bromegrass, Downy ([8]; 125 g ai/ha): 45
- Plant response rating, Bromegrass, Downy ([8]; 250 g ai/ha): 45
- Plant response rating, Lambsquarters ([9]; 31 g ai/ha, scale 0-100): 85
- Plant response rating, Lambsquarters [9, 19]: 98
- Plant response rating, Lambsquarters [9, 20]: 100
- Plant response rating, Lambsquarters [9, 21]: 100
- Plant response rating, Chamomile ([10]; 31 g ai/ha, scale 0-100): 0
- Plant response rating, Chamomile [10, 19]: 0
- Plant response rating, Chamomile [10, 20]: 10
- Plant response rating, Chamomile [10, 21]: 10
- Plant response rating, Barley, Spring ([11]; 62 g ai/ha): 15
- Plant response rating, Barley, Spring ([11]; 31 g ai/ha): 5
- Plant response rating, Barley, Spring ([11]; 125 g ai/ha): 20
- Plant response rating, Barley, Spring ([11]; 250 g ai/ha): 25
- Plant response rating, Barley, Winter ([12]; 62 g ai/ha): 15
- Plant response rating, Barley, Winter ([12]; 31 g ai/ha): 15
- Plant response rating, Barley, Winter ([12]; 125 g ai/ha): 20
- Plant response rating, Barley, Winter ([12]; 250 g ai/ha): 25
- Plant response rating, Oat, Wild ([13]; 31 g ai/ha, scale 0-100): 20
- Plant response rating, Oat, Wild [13, 19]: 25
- Plant response rating, Oat, Wild [13, 20]: 25
- Plant response rating, Oat, Wild [13, 21]: 35

Reference: US9695155B2, “Herbicidal substituted pyrimidinyloxy benzene compounds” (E. I. DU PONT DE NEMOURS AND COMPANY, priority 2013, dated 2017)
